Laboratory results published in US11247970B2, “Selective inhibition of gluconeogenic activity” (Dana-Farber Cancer Institute, Inc., priority 2017, dated 2022).

Assays:
[1] = system: interaction of GCN5 with PGC-1α; experiment: Co-immunoprecipitation of PGC-1α with GCN5 in U-2 OS cells; assay type: cell-based; details: endogenous and ectopically expressed GCN5
Experimental: For PGC-1α acetylation detection in hepatocytes cells were infected with Ad-PGC-1α and Ad-GCN5. Cells were collected in RIPA buffer (containing protease inhibitor cocktail, 5 mM NaF, 5 mM β-glycerophosphate, 10 mM nicotinamide, 1 mM DTT and 1 μM trichostatin A). FLAG-HA-PGC-1α was immunoprecipitated overnight at 4° C. with FLAG beads (Sigma A2220). For GCN5 interaction with PGC-1α, U-2 OS cells were infected with Ad-PGC-1α. Nuclear extracts were obtained by lysing cell in Buffer A (10 mM HEPES-KOH (pH 7.9), 10 mM KCl, 1.5 mM MgCl2, 0.5 mM DTT, 0.25% IGEPAL (v/v), 5 mM NaF, 5 mM β-glycerophosphate, 5 mM sodium butyrate and 10 mM nicotinamide), supplemented with Protease Inhibitor Cocktail. Once cytoplasmic fractions were separated, nuclear pellets were lysed in Buffer B (20 mM HEPES-KOH (pH 7.9), 125 mM NaCl, 1 mM EDTA, 1 mM DTT, 1% IGEPAL (v/v), 10% glycerol (v/v), 5 mM NaF, 5 mM β-glycerophosphate, 5 mM sodium butyrate and 10 mM nicotinamide), supplemented with Protease Inhibitor Cocktail. FLAG-HA-PGC-1α was immunoprecipitated with FLAG beads overnight at 4° C. All beads were washed at last 3 times in lysis buffer before eluting in sample loading buffer.

[2] = system: HNF4α; experiment: Transcriptional luciferase reporter assay (Pck1 promoter fragment with HNF4α site) in U-2 OS cells; assay type: cell-based; details: 24 h
Experimental: U-2 OS cells were transfected with a fixed amount of DNA. After 6 h medium was changed and compound treatment started. The following morning medium was changed again and fresh compound was added for additional 3 h after which cells were collected (24 h post transfection) with 1× Passive Lysis Buffer (Promega). Firefly luciferase reporter was determined by addition of Luciferase Assay Substrate (Dual-Luciferase Reporter Assay System, Promega) and quantification of luminescence on a FLUOstar Omega plate reader (BMG Labtech). CMV-driven Renilla luciferase vector was cotransfected as an internal control. Data are presented as firefly luciferase reporter values normalized to Renilla values and are representative of at least two independent experiments.
The GCN5 acetyl transferase complex decreases PGC-1α gluconeogenic transcriptional activation by interacting with PGC-1α. This is achieved at least in part by reducing the ability of PGC-1α to co-activate the nuclear hormone receptor HNF4α. Co-activation of HNF4α by PGC-1α is required to promote transcription of the gluconeogenic genes Pck1 and G6pc. To test whether SR-18292 reduces the transcriptional activity of HNF4α that is induced by PGC-1α, a luciferase reporter construct driven by a fragment of the Pck1 promoter containing an HNF4α binding site was used. […]

Structure (SMILES): Cc1ccc(CN(CC(O)COc2cccc3[nH]ccc23)C(C)(C)C)cc1 (centres unmarked) [SR-18292, 1-((1H-indol-4-yl)oxy)-3-(tert-butyl(4-methylbenzyl)amino)propan-2-ol]
- interaction of GCN5 with PGC-1α [1]: increased
- transcriptional activity of HNF4α induced by PGC-1α [2]: significantly reduced
